Reference: the supplement of paper PMC10627819

Legend:
Test in all cases: fitness (endpoint OD595 vs no drug) (fraction); higher = more growth
S. aureus Newman = tested on: S. aureus Newman
Outline: (§1)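 Fitness is computed from the optical density at which cultures reach stationary phase, divided by the robust mean of no-drug control wells. Any value above 1 is set to 1. Cultures started at OD595 0.01 in 384-well plates with TSB, LB Lennox or CY at 37 °C, and OD595 was read every 30 min for 14 h against a first-reading background.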

S. aureus DSM 20231 = tested on: S. aureus DSM 20231
Outline: as §1

B. subtilis 168 = tested on: B. subtilis 168
Outline: as §1

S. pneumoniae D39V = tested on: S. pneumoniae D39V
Outline: as §1
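Note: OD595 on entry to stationary phase over no-drug wells; at most 1.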

N[C@@H]1CONC1=O [Cycloserine D] + Cc1cc(NS(=O)(=O)c2ccc(N)cc2)no1 [Sulfamethoxazol]
fitness
Settings	first compound 0.125 µg/mL	first compound 0.25 µg/mL	first compound 0.375 µg/mL	first compound 0.5 µg/mL	first compound 0.75 µg/mL	first compound 1.5 µg/mL
B. subtilis 168, partner 1 µg/mL	0.941	0.933	–	0.868	–	–
B. subtilis 168, partner 2 µg/mL	0.869	0.896	–	0.929	–	–
B. subtilis 168, partner 4 µg/mL	0.951	0.931	–	≥ 1	–	–
S. aureus DSM 20231, partner 1 µg/mL	–	–	≥ 1	–	≥ 1	0.93
S. aureus DSM 20231, partner 2 µg/mL	–	–	≥ 1	–	0.913	0.982
S. aureus DSM 20231, partner 4 µg/mL	–	–	≥ 1	–	0.929	≥ 1
S. aureus Newman, partner 1 µg/mL	–	–	0.997	–	0.979	0.949
S. aureus Newman, partner 2 µg/mL	–	–	≥ 1	–	≥ 1	≥ 1
S. aureus Newman, partner 4 µg/mL	–	–	≥ 1	–	≥ 1	≥ 1

fitness, one replicate
Settings	first compound 0.125 µg/mL	first compound 0.25 µg/mL	first compound 0.375 µg/mL	first compound 0.5 µg/mL	first compound 0.75 µg/mL	first compound 1.5 µg/mL
B. subtilis 168, partner 0.5 µg/mL	0.939	0.993	–	0.977	–	–
S. aureus Newman, partner 8 µg/mL	–	–	≥ 1	–	≥ 1	≥ 1

N[C@@H]1CONC1=O [Cycloserine D] + Cc1ncc([N+](=O)[O-])n1CCO [Metronidazole]
fitness
Settings	partner 0.625 µg/mL	partner 0.781 µg/mL	partner 1.25 µg/mL	partner 1.562 µg/mL	partner 2.5 µg/mL	partner 3.124 µg/mL
B. subtilis 168, first compound 0.125 µg/mL	0.948	–	0.913	–	0.937	–
B. subtilis 168, first compound 0.25 µg/mL	–	–	0.841	–	0.868	–
B. subtilis 168, first compound 0.5 µg/mL	0.933	–	0.921	–	0.973	–
S. aureus DSM 20231, first compound 0.375 µg/mL	≥ 1	–	≥ 1	–	≥ 1	–
S. aureus DSM 20231, first compound 0.75 µg/mL	≥ 1	–	≥ 1	–	≥ 1	–
S. aureus DSM 20231, first compound 1.5 µg/mL	≥ 1	–	≥ 1	–	≥ 1	–
S. aureus Newman, first compound 0.375 µg/mL	0.969	0.959	≥ 1	0.976	0.97	0.985
S. aureus Newman, first compound 0.75 µg/mL	0.929	≥ 1	≥ 1	0.972	0.961	0.988
S. aureus Newman, first compound 1.5 µg/mL	0.912	≥ 1	0.964	0.974	0.972	≥ 1

N[C@@H]1CONC1=O [Cycloserine D] + Cn1nnc(-c2ccc(-c3ccc(N4C[C@H](CO)OC4=O)cc3F)cn2)n1 [Tedizolid]
fitness
Settings	first compound 0.375 µg/mL	first compound 0.75 µg/mL	first compound 1.5 µg/mL
S. aureus DSM 20231, partner 0.0625 µg/mL	0.95	0.942	0.923
S. aureus DSM 20231, partner 0.125 µg/mL	0.738	0.802	0.827
S. aureus Newman, partner 0.0625 µg/mL	0.956	0.938	0.99
S. aureus Newman, partner 0.125 µg/mL	0.925	0.842	0.855

O=C(O[C@@H]1Cc2c(O)cc(O)cc2O[C@@H]1c1cc(O)c(O)c(O)c1)c1cc(O)c(O)c(O)c1 [EGCG] + CO/N=C(\C(=O)N[C@@H]1C(=O)N2C(C(=O)[O-])=C(C[N+]3(C)CCCC3)CS[C@H]12)c1csc(N)n1 [Cefepime]
fitness
Settings	first compound 12.5 µg/mL	first compound 25 µg/mL	first compound 50 µg/mL
S. aureus DSM 20231, partner 0.125 µg/mL	0.736	0.725	–
S. aureus DSM 20231, partner 0.25 µg/mL	0.634	0.563	0.583
S. aureus DSM 20231, partner 0.5 µg/mL	0.616	0.576	0.587
S. aureus Newman, partner 0.125 µg/mL	0.789	0.722	0.72
S. aureus Newman, partner 0.25 µg/mL	0.736	0.685	0.678
S. aureus Newman, partner 0.5 µg/mL	0.656	0.724	0.657
S. pneumoniae D39V, partner 0.007 µg/mL	0.958	0.951	0.985
S. pneumoniae D39V, partner 0.0078 µg/mL	≥ 1	0.874	0.939
S. pneumoniae D39V, partner 0.014 µg/mL	0.998	0.987	0.998
S. pneumoniae D39V, partner 0.0155 µg/mL	0.96	≥ 1	0.931
S. pneumoniae D39V, partner 0.028 µg/mL	0.928	0.979	0.973
S. pneumoniae D39V, partner 0.031 µg/mL	0.733	0.716	0.853

O=C(O[C@@H]1Cc2c(O)cc(O)cc2O[C@@H]1c1cc(O)c(O)c(O)c1)c1cc(O)c(O)c(O)c1 [EGCG] + CO[C@@]12[C@H](COC(N)=O)C3=C(C(=O)C(C)=C(N)C3=O)N1C[C@@H]1N[C@@H]12 [Mitomycin C]
fitness
Settings	first compound 12.5 µg/mL	first compound 25 µg/mL	first compound 50 µg/mL
S. aureus DSM 20231, partner 0.0156 µg/mL	0.587	0.553	–
S. aureus DSM 20231, partner 0.0312 µg/mL	0.595	0.574	–
S. aureus DSM 20231, partner 0.0625 µg/mL	0.507	0.483	–
S. aureus Newman, partner 0.0156 µg/mL	0.541	0.611	0.628
S. aureus Newman, partner 0.0312 µg/mL	0.547	0.528	0.488
S. aureus Newman, partner 0.0625 µg/mL	0.457	0.397	0.459
S. pneumoniae D39V, partner 0.001075 µg/mL	0.877	0.9	0.926
S. pneumoniae D39V, partner 0.002 µg/mL	0.77	–	0.777
S. pneumoniae D39V, partner 0.00215 µg/mL	0.783	0.902	–
S. pneumoniae D39V, partner 0.004 µg/mL	0.793	0.685	0.646
S. pneumoniae D39V, partner 0.0043 µg/mL	–	0.747	0.881
S. pneumoniae D39V, partner 0.008 µg/mL	0.422	0.379	0.285

CCCCCCCCCC(=O)N[C@H]1[C@H](Oc2c3cc4cc2Oc2ccc(cc2Cl)[C@@H](O[C@@H]2O[C@H](CO)[C@@H](O)[C@H](O)[C@H]2NC(C)=O)[C@@H]2NC(=O)[C@H](NC(=O)[C@@H]4NC(=O)[C@H]4NC(=O)[C@@H](Cc5ccc(c(Cl)c5)O3)NC(=O)[C@H](N)c3ccc(O)c(c3)Oc3cc(O)cc4c3)c3ccc(O)c(c3)-c3c(O[C@H]4O[C@H](CO)[C@@H](O)[C@H](O)[C@@H]4O)cc(O)cc3[C@@H](C(=O)O)NC2=O)O[C@H](CO)[C@@H](O)[C@@H]1O [Teicoplanin] + Cn1nnc(-c2ccc(-c3ccc(N4C[C@H](CO)OC4=O)cc3F)cn2)n1 [Tedizolid]
fitness, main component drawn
Settings	first compound 0.1562 µg/mL	first compound 0.3125 µg/mL	first compound 0.625 µg/mL
S. aureus DSM 20231, partner 0.0625 µg/mL	0.808	0.89	0.949
S. aureus DSM 20231, partner 0.25 µg/mL	0.066	0.0756	0.1
S. aureus Newman, partner 0.0625 µg/mL	≥ 1	0.969	0.811
S. aureus Newman, partner 0.125 µg/mL	≥ 1	0.97	0.779
S. aureus Newman, partner 0.25 µg/mL	–	0.391	0.163

fitness, S. aureus Newman, one replicate, main component drawn
Settings	first compound 0.62 µg/mL	first compound 1.24 µg/mL	first compound 2.48 µg/mL
partner 0.0625 µg/mL	0.883	0.789	0.474
partner 0.125 µg/mL	0.853	0.812	0.627
partner 0.25 µg/mL	0.447	0.402	0.361
